Legend:
GABAA receptor α2β3γ2 = biological target: T1, GABAA receptor α2β3γ2 (Homo sapiens, UniProt P18507+P47869); experiment: Two-electrode voltage-clamp potentiation of GABA EC10 current in Xenopus oocytes, GABAA2; assay type: cell-based; conditions: percentage potentiation of GABA EC10 current divided by that of diazepam
T1 construct: expressed in transfected cells; host or cells: Xenopus laevis oocytes injected with cRNA
Outline: (§1)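 Human GABAA receptors expressed in Xenopus oocytes by cRNA injection (α:β:γ molar ratio ~1:1:10 for α1β2γ2, 1:1:1 for α2β3γ2), recorded 2-10 days later by two-electrode voltage clamp at −60 mV in ND-96, pH 7.5. Modulator preapplied 30 s before GABA at per-oocyte EC10. Peak-current percent potentiation over GABA alone, normalised to diazepam.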

GABAA receptor α1β2γ2 = biological target: T2, GABAA receptor α1β2γ2 (Homo sapiens, UniProt P14867+P18507); experiment: Two-electrode voltage-clamp potentiation of GABA EC10 current in Xenopus oocytes, GABAA1; assay type: cell-based; conditions: percentage potentiation of GABA EC10 current divided by that of diazepam
T2 construct: expressed in transfected cells; host or cells: Xenopus laevis oocytes injected with cRNA
Outline: as §1

[1] = biological target: T3, GABAA2 receptors (α2, β3, γ2 receptor subunits transfected into Sf9 cells) (Homo sapiens, UniProt P18507+P47869); experiment: GABAA2 Binding Method ([3H]-Flunitrazepam displacement); conditions: [3H]-Flunitrazepam ~2 nM, α2β3γ2 Sf9 membranes, 1 hr at 4° C.
T3 construct: host or cells: Sf9 cells (membranes)
Outline: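 Displacement of [3H]-flunitrazepam (~2 nM in assay) from recombinant human α2β3γ2 receptors in Sf9 membranes; 1 h incubation at 4 °C, harvest by filtration. Values reported as percent of control, IC50 and Ki.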

[2] = listed as 9-amino-2-cyclobutyl-5-(2-fluoro-6-methoxyphenyl)-2,3-dihydro-1H-pyrrolo[3,4-b]q

T2 sequence (P14867 28-456): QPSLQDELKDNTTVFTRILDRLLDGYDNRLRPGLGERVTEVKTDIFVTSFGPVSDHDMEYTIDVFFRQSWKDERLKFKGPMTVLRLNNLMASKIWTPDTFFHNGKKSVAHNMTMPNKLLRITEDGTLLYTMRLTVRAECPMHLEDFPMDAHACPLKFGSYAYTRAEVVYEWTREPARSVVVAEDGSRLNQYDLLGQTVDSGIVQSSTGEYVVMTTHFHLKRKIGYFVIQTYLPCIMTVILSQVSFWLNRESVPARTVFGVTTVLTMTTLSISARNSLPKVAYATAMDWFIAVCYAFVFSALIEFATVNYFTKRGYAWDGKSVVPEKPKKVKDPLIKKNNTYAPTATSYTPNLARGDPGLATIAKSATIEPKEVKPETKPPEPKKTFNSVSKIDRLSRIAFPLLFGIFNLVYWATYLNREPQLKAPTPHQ
T2 sequence (P47870 25-512 partner limits assumed): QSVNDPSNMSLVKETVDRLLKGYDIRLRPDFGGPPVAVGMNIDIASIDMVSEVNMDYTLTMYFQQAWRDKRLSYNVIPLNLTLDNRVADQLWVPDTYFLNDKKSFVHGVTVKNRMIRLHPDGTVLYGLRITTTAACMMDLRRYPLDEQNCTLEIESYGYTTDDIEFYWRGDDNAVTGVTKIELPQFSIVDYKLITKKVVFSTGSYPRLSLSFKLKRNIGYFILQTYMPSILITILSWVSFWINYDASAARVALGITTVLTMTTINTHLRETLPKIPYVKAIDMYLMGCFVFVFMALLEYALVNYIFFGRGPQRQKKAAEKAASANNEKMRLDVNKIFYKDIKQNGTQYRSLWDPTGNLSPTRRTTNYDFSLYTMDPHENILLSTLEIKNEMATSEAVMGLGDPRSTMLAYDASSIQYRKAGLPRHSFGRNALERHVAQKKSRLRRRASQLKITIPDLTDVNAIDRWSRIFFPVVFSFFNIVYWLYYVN
T2 sequence (P18507 40-475): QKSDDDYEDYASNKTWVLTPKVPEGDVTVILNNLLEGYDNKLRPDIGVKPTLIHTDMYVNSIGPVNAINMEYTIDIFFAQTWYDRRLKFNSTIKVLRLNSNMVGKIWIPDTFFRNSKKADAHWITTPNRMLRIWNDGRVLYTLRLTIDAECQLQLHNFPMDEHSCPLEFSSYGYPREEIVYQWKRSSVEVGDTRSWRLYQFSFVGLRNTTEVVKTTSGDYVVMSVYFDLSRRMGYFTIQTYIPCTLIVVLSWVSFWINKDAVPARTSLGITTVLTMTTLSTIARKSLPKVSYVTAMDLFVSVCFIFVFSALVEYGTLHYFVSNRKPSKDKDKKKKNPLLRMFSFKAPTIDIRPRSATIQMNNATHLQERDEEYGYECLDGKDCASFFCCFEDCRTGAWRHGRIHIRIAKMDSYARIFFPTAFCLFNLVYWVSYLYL
T1 sequence (P47869 29-451): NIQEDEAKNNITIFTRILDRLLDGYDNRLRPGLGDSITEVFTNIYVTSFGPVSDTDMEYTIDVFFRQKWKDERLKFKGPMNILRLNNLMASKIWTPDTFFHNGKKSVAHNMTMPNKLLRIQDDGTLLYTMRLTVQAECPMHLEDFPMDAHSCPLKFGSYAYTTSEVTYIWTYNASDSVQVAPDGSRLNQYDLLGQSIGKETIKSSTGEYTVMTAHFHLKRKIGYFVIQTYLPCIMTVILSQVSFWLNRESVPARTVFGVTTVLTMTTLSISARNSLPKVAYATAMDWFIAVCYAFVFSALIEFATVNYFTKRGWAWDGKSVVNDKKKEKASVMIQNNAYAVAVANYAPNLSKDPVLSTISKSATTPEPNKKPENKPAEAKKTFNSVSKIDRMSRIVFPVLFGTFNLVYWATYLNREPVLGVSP
T1 sequence (P28472 26-473 partner): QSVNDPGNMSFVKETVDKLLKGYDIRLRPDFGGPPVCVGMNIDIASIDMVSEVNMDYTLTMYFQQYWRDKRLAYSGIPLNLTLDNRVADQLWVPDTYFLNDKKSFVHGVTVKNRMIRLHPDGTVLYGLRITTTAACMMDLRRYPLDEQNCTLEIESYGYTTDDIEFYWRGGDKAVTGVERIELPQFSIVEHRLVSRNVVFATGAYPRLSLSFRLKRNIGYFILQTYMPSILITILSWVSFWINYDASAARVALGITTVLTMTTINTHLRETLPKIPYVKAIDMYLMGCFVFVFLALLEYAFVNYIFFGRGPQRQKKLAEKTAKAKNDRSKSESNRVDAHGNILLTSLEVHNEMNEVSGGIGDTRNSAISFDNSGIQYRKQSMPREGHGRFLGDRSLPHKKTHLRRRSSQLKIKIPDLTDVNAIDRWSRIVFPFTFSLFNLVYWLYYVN
T1 sequence (P18507 40-475): as the sequence (P18507 40-475) above
T3 sequence (P47869 29-451): as the sequence (P47869 29-451) above
T3 sequence (P28472 26-473 partner): as the sequence (P28472 26-473 partner) above
T3 sequence (P18507 40-475): as the sequence (P18507 40-475) above

SMILES | Relative Potentiation for GABAA2 (GABAA receptor α2β3γ2) | Relative Potentiation for GABAA1 (GABAA receptor α1β2γ2) | Ki [1] [nM] | Relative Potentiation for GABAA2 (GABAA receptor α2β3γ2; [2]) | Relative Potentiation for GABAA1 (GABAA receptor α1β2γ2; [2])
COc1ccc(CN2Cc3nc4c(-c5ccc(Cl)nc5)cccc4c(N)c3C2=O)cc1OC [Example 8, 9-Amino-5-(6-chloropyridin-3-yl)-2-(3,4-dimethoxybenzyl)-2,3-dihydropyrrolo[3,4-b]quinolin-1-one] | 0.07 | 0.013 | 45.9 | – | –
CCCN1Cc2nc3c(-c4ccc(OC)nc4OC)cccc3c(N)c2C1=O [Example 9, 9-Amino-5-(2,6-dimethoxypyridin-3-yl)-2-propyl-2,3-dihydropyrrolo[3,4-b]quinolin-1-one] | 0.31 | 0.068 | 28.1 | – | –
CCCN1Cc2nc3c(-c4ccc(C)nc4)cccc3c(N)c2C1=O [Example 10, 9-Amino-5-(6-methylpyridin-3-yl)-2-propyl-2,3-dihydropyrrolo[3,4-b]quinolin-1-one] | 0.19 | 0.092 | 92.2 | – | –
COc1ccc(OC)c(-c2cccc3c(N)c4c(nc23)CN(Cc2ccc(OC)c(OC)c2)C4=O)c1 [Example 11, 9-Amino-2-(3,4-dimethoxybenzyl)-5-(2,5-dimethoxyphenyl)-2,3-dihydropyrrolo[3,4-b]quinolin-1-one] | 0.19 | 0.15 | 11 | – | –
CCCN1Cc2nc3c(-c4cnc(OC)cc4C)cccc3c(N)c2C1=O [Example 12, 9-Amino-5-(6-methoxy-4-methylpyridin-3-yl)-2-propyl-2,3-dihydropyrrolo[3,4-b]quinolin-1-one] | 0.23 | 0.17 | 50.6 | – | –
CCCN1Cc2nc3c(-c4cccnc4F)cccc3c(N)c2C1=O [Example 13, 9-Amino-5-(2-fluoropyridin-3-yl)-2-propyl-2,3-dihydropyrrolo[3,4-b]quinolin-1-one] | 0.37 | 0.21 | 26.7 | – | –
COc1ccc(C)cc1-c1cccc2c(N)c3c(nc12)CN(Cc1ccc2c(c1)OCO2)C3=O [Example 14, 9-Amino-2-benzo[1,3]dioxol-5-ylmethyl-5-(2-methoxy-5-methylphenyl)-2,3-dihydropyrrolo[3,4-b]quinolin-1-one] | 0.37 | 0.22 | 15.5 | – | –
CCCN1Cc2nc3c(-c4ccc(C)nc4Cl)cccc3c(N)c2C1=O [Example 15, 9-Amino-5-(2-chloro-6-methylpyridin-3-yl)-2-propyl-2,3-dihydropyrrolo[3,4-b]quinolin-1-one] | 0.87 | 0.29 | 7.06 | – | –
CCN1Cc2nc3c(-c4c(F)cccc4OC)cccc3c(N)c2C1=O [Example 17, 9-Amino-2-ethyl-5-(2-fluoro-6-methoxyphenyl)-2,3-dihydropyrrolo[3,4-b]quinolin-1-one] | 0.15 | −0.11 | 4.36 | – | –
COc1cccc(F)c1-c1cccc2c(N)c3c(nc12)CN(C1CCC1)C3=O [Example 18, 9-Amino-2-cyclobutyl-5-(2-fluoro-6-methoxyphenyl)-2,3-dihydropyrrolo[3,4-b]quinolin-1-one] | – | – | 1.62 | 0.2 | −0.07
CCN1Cc2nc3c(-c4cccnc4OC)cccc3c(N)c2C1=O [Example 19, 9-Amino-2-ethyl-5-(2-methoxypyridin-3-yl)-2,3-dihydropyrrolo[3,4-b]quinolin-1-one] | 0.28 | 0.022 | 24.2 | – | –
COc1cccc(F)c1-c1cccc2c(N)c3c(nc12)CN(C)C3=O [Example 20, 9-Amino-5-(2-fluoro-6-methoxyphenyl)-2-methyl-2,3-dihydropyrrolo[3,4-b]quinolin-1-one] | 0.26 | 0.046 | 18.8 | – | –
COc1cccc(-c2cccc3c(N)c4c(nc23)CN(C2CC2)C4=O)c1F [Example 22, 9-Amino-2-cyclopropyl-5-(2-fluoro-3-methoxyphenyl)-2,3-dihydropyrrolo[3,4-b]quinolin-1-one] | 0.14 | 0.07 | 18.2 | – | –
COc1ccc(CN2Cc3nc4c(-c5ccc(C)nc5Cl)cccc4c(N)c3C2=O)cc1OC [Example 23, 9-Amino-5-(2-chloro-6-methylpyridin-3-yl)-2-(3,4-dimethoxybenzyl)-2,3-dihydropyrrolo[3,4-b]quinolin-1-one] | 0.34 | 0.11 | 4.36 | – | –
CCCN1Cc2nc3c(-c4ccc(OC)nc4OC)c(F)ccc3c(N)c2C1=O [Example 24, 9-Amino-5-(2,6-dimethoxypyridin-3-yl)-6-fluoro-2-propyl-2,3-dihydropyrrolo[3,4-b]quinolin-1-one] | 0.35 | 0.15 | 2.94 | – | –
CCN1Cc2nc3c(-c4ccccc4C#N)cccc3c(N)c2C1=O [Example 25, 2-(9-Amino-2-ethyl-1-oxo-2,3-dihydro-1H-pyrrolo[3,4-b]quinolin-5-yl)-benzonitrile] | 0.17 | −0.11 | 14.1 | – | –
CCN1Cc2nc3c(-c4ccc(OC)nc4OC)c(F)ccc3c(N)c2C1=O [Example 26, 9-Amino-5-(2,6-dimethoxypyridin-3-yl)-2-ethyl-6-fluoro-2,3-dihydropyrrolo[3,4-b]quinolin-1-one] | 0.18 | 0.062 | 8.96 | – | –
CCN1Cc2nc3c(-c4ccc(OC)c(OC)c4)cccc3c(N)c2C1=O [Example 29, 9-Amino-2-ethyl-5-(3,4-dimethoxyphenyl)-2,3-dihydropyrrolo[3,4-b]quinolin-1-one] | 0.19 | 0.07 | 21.4 | – | –
CCN1Cc2nc3c(-c4ccc(F)cc4OC)cccc3c(N)c2C1=O [Example 32, 9-Amino-2-ethyl-5-(4-fluoro-2-methoxyphenyl)-2,3-dihydropyrrolo[3,4-b]quinolin-1-one] | 0.2 | −0.05 | 22.1 | – | –
CCN1Cc2nc3c(-c4cccc(OC)c4F)cccc3c(N)c2C1=O [Example 33, 9-Amino-2-ethyl-5-(2-fluoro-3-methoxyphenyl)-2,3-dihydropyrrolo[3,4-b]quinolin-1-one] | 0.21 | 0.01 | 9.93 | – | –
COc1cccc(F)c1-c1c(F)ccc2c(N)c3c(nc12)CN(C1CC1)C3=O [Example 35, 9-Amino-2-cyclopropyl-6-fluoro-5-(2-fluoro-6-methoxyphenyl)-2,3-dihydropyrrolo[3,4-b]quinolin-1-one] | 0.24 | −0.075 | 2.59 | – | –
COc1ncccc1-c1c(F)ccc2c(N)c3c(nc12)CN(C1CC1)C3=O [Example 38, 9-Amino-2-cyclopropyl-6-fluoro-5-(2-methoxypyridin-3-yl)-2,3-dihydropyrrolo[3,4-b]quinolin-1-one] | 0.26 | 0.11 | 2.59 | – | –
